Data as given in patent publication US11820799B2, “Malassezia factor with antibiotic activity” (priority 2021, dated 2023).

System: S. aureus
Experiment: S. aureus growth curves / MIC with oxacillin in TSB
Assay type: cell-based, Staphylococcus aureus
Description: S. aureus growth curves: S. aureus growth curves were performed on a BioTek Synergy™ H1 monochromator-based multi-mode microplate reader in non-treated flat bottom 96-well plates. S. aureus grown overnight in 5 mL of TSB was subcultured 1:10 in fresh TSB for 1 h. Cells were collected through centrifugation at 5,000×g for 1 min and resuspended in fresh TSB. For 0 μg/mL oxacillin, 4 μg/mL oxacillin, and 16 μg/mL oxacillin TSB was utilized with a starting OD600 of 0.02.

Cc1onc(-c2ccccc2)c1C(=O)N[C@@H]1C(=O)N2[C@@H]1SC(C)(C)[C@@H]2C(=O)O [oxacillin]
growth of CFS-resistant strains with Sa-rel mutations (EVOL-P1 Y1 and IsoA) (4 μg/mL oxacillin in TSB): able to grow robustly | growth of CFS-resistant strains with Sa-rel mutations (EVOL-P1 Y1 and IsoA) (16 μg/mL oxacillin in TSB): able to grow robustly | MIC (Staphylococcus aureus, ancestral strain, rich media (tryptic soy broth, TSB)): 4 to 8 µg/mL
